Laboratory results from patent publication US9321756B2, “Azole compounds as PIM inhibitors” (priority 2011, dated 2016).
pIC50: −log10 of the molar value. Read-outs that look alike come from different tables or passages of the source.

Tests used:
[1] = tested on: Pim-2 stably transfected U2OS human osteogenic sarcoma line; experiment: Pim cell assay U2OS (phospho-BAD normalized against total BAD), Pim-2 transfected; type: cell-based; settings: Homo sapiens; U2OS cells, Pim-2 transfected; read-out: U2OS Pim2_Cell_IC50
Protocol: (§1) The cell lines used in the assay were generated by the stable transfection of either Pim-1 or Pim-2 into the U2OS human osteogenic sarcoma line. The assay for determination of the Pim activity in the engineered U2OS cell lines measures levels of phospho-BAD normalized against total BAD protein levels. It was conducted as follows:
(§2) The adherent cells were dissociated from the flasks using non-enzymatic cell dissociation solution (Sigma #C5914). […] The cells were then incubated overnight at 37° C., 5% CO2.
(§3) In addition to the 10-point dosing curve of the test compound, DMSO alone was run as the high control.
(§4) This dilution in DMSO was then diluted again into cell growth medium. Aliquots (12 μL) of the compound diluted in growth medium were then transferred to the appropriate wells of the 96-well plates containing cells to a final DMSO concentration of 0.3%. The cell plates were then incubated with compound for 29 min at 37° C., 5% CO2.
(§5) The cell plates containing lysis buffer were then immediately stored at −70° C.
(§6) These prepared lysates were then assayed for phospho and total BAD according to the manufacturer's protocols (Meso Scale Diagnostics, Cat#K15103C-3 & #K15103D-3). The plates were read on the MSD Sector Imager 6000, and results were calculated according to the assay protocols ((% Phosphoprotein=((2×Phospho signal)/(Phospho signal+Total signal))×100)).

[2] = target: full length recombinant Pim-1 (Homo sapiens (Human), UniProt P11309); experiment: Pim enzyme assay (HTRF, phosphorylation of biotinylated-BAD (S112) peptide), Pim-1; type: biochemical; settings: Pim-1 enzyme assay; read-out: Pim_1_IC50
Chain of full length recombinant Pim-1 (P11309 whole entry): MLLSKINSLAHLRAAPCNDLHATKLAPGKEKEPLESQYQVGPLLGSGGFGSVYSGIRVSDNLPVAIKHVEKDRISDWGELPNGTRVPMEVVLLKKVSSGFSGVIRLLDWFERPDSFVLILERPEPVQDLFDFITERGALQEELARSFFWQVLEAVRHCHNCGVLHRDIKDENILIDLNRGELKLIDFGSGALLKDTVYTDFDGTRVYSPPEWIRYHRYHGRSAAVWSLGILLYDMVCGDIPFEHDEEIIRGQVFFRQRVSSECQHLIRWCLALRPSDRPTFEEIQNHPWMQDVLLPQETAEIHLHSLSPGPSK

[3] = tested on: Pim-1 stably transfected U2OS human osteogenic sarcoma line; experiment: Pim cell assay U2OS (phospho-BAD normalized against total BAD), Pim-1 transfected; type: cell-based; settings: Homo sapiens
Protocol: as §1, §2, §3, §4, §5, §6

[4] = target: full length recombinant Pim-3 (Homo sapiens (Human), UniProt Q86V86); experiment: Pim enzyme assay (HTRF, phosphorylation of biotinylated-BAD (S112) peptide), Pim-3; type: biochemical; settings: read-out: Pim3 IC50
In short: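 Full-length recombinant Pim-3 phosphorylated biotinylated BAD (S112) peptide in 60 mM Hepes pH 7.0, 0.05% BSA, 2 mM DTT for 1 h 30 min at 22 °C. After EDTA stop, HTRF was read with Eu anti-phospho-BAD and streptavidin-APC. IC50 came from 4-parameter logistic fit of percent-of-control values.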

[5] = target: full length recombinant Pim-2 (Homo sapiens (Human), UniProt Q9P1W9); experiment: Pim enzyme assay (HTRF, phosphorylation of biotinylated-BAD (S112) peptide), Pim-2; type: biochemical; settings: Pim-2 enzyme assay; read-out: Pim2_IC50
Chain of full length recombinant Pim-2 (Q9P1W9 whole entry): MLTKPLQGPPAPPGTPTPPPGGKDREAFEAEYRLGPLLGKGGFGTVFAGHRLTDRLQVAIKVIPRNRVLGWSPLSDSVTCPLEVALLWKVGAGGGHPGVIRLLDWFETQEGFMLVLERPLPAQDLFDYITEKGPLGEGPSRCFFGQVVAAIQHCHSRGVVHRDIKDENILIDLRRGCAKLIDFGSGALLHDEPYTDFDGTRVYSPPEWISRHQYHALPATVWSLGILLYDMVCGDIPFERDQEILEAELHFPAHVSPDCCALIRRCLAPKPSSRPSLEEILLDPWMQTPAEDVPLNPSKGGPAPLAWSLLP

[6] = U2OS, read-out: U2OS Pim1_Cell_IC50
[7] = U2OS, read-out: U2OS Pim1_Cell_IC50, U2OS cells, Pim-1 transfected

pIC50 [2]	pIC50 ([4]; Pim-3 enzyme assay)	pIC50 [5]	Structure (SMILES)	pIC50 [1]	pIC50 [3, 6]	pIC50 [3, 7]	pIC50 [4]	pIC50 ([3]; U2OS cells, Pim-1 transfected, read-out: U2OS Pim1_Cell_IC50)
7.94	8.29	8.11	Nc1nnc(-c2ccc3[nH]cc(-c4nccc(N5CCC[C@@H](O)C5)n4)c3c2)o1 (stereo in doubt) [Example 104, 1-(2-(5-(5-amino-1,3,4-oxadiazol-2-yl)-1H-indol-3-yl)-4-pyrimidinyl)-3-piperidinol]	4.82	5.67	–	–	–
8.26	8.75	8.32	C[C@H]1CCCN(c2ccnc(-c3c[nH]c4ccc(-c5nnc(N)o5)cc34)n2)C1 (stereo in doubt) [Example 105, 5-(3-(4-(3-methyl-1-piperidinyl)-2-pyrimidinyl)-1H-indol-5-yl)-1,3,4-oxadiazol-2-amine]	6.04	6.98	–	–	–
8.22	8.43	8.49	CN(C)[C@H]1CCCN(c2ccnc(-c3c[nH]c4ccc(-c5nnc(N)o5)cc34)n2)C1 (stereo in doubt) [Example 107, 1-(2-(5-(5-amino-1,3,4-oxadiazol-2-yl)-1H-indol-3-yl)-4-pyrimidinyl)-N,N-dimethyl-3-piperidinamine]	< 4.50	5.41	–	–	–
7.72	8.23	7.19	C[C@H]1CCCCN1c1cccc(-c2c[nH]c3ccc(-c4nnc(N)s4)cc23)n1 (stereo in doubt) [Example 167, 5-(3-(6-(2-methyl-1-piperidinyl)-2-pyridinyl)-1H-indol-5-yl)-1,3,4-thiadiazol-2-amine]	4.60	6.38	–	–	–
8.71	8.97	–	Nc1nnc(-c2ccc3[nH]cc(-c4cncc(N5CCC(F)(F)CC5)n4)c3c2)o1 [Example 2, 5-(3-(6-(4,4-difluoropiperidin-1-yl)pyrazin-2-yl)-1H-indol-5-yl)-1,3,4-oxadiazol-2-amine]	6.38	–	7.53	–	–
–	8.25	7.23	Nc1nnc(-c2ccc3[nH]cc(-c4cccc(N5CCOCC5)n4)c3c2)s1 [Example 24, 5-(3-(6-morpholinopyridin-2-yl)-1H-indol-5-yl)-1,3,4-thiadiazol-2-amine]	5.12	–	6.63	–	–
6.92	7.54	–	Oc1nnc(-c2ccc3[nH]cc(-c4cccc(N5CCOCC5)n4)c3c2)s1 [Example 29, 5-(3-(6-morpholinopyridin-2-yl)-1H-indol-5-yl)-1,3,4-thiadiazol-2-ol]	< 4.50	–	5.16	–	–
–	–	–	CC(C)Oc1cccc(-c2c[nH]c3ccc(-c4nnc(NC5CCCNC5)s4)cc23)n1 (stereo not drawn) [Example 32, 5-(3-(6-Isopropoxypyridin-2-yl)-1H-indol-5-yl)-N-(piperidin-3-yl)-1,3,4-thiadiazol-2-amine 2,2,2-trifluoroacetate]	5.16	–	6.24	8.46	–
7.86	–	7.59	COC[C@H]1CCCN1c1ccnc(-c2c[nH]c3ccc(-c4nnc(N)o4)cc23)n1 [Example 113, 5-(3-(4-((2R)-2-(methoxymethyl)-1-pyrrolidinyl)-2-pyrimidinyl)-1H-indol-5-yl)-1,3,4-oxadiazol-2-amine]	< 5.00	6.42	–	–	–
7.90	–	7.60	Nc1nnc(-c2ccc3[nH]cc(-c4cncc(-c5ccc(Cl)cc5)n4)c3c2)o1 [Example 114, 5-(3-(6-(4-chlorophenyl)-2-pyrazinyl)-1H-indol-5-yl)-1,3,4-oxadiazol-2-amine]	< 4.50	–	6.86	–	–
7.97	8.30	–	Nc1nnc(-c2ccc3[nH]cc(-c4nccc(-c5ccccc5F)n4)c3c2)o1 [Example 123, 5-(3-(4-(2-fluorophenyl)-2-pyrimidinyl)-1H-indol-5-yl)-1,3,4-oxadiazol-2-amine]	5.87	–	6.83	–	–
8.11	–	8.00	CC(C)Oc1cccc(-c2c[nH]c3ccc(-c4nnc(N)s4)cc23)n1 [Example 157, 5-(3-(6-(1-methylethoxy)-2-pyridinyl)-1H-indol-5-yl)-1,3,4-thiadiazol-2-amine]	5.65	6.97	–	–	–
7.96	8.53	–	Nc1nnc(-c2ccc3[nH]cc(-c4cccc(OC5CCC5)n4)c3c2)s1 [Example 161, 5-(3-(6-(cyclobutyloxy)-2-pyridinyl)-1H-indol-5-yl)-1,3,4-thiadiazol-2-amine]	5.46	–	6.69	–	–
7.83	8.34	–	Nc1nnc(-c2ccc3[nH]cc(-c4cccc(OC5CCCC5)n4)c3c2)s1 [Example 163, 5-(3-(6-(cyclopentyloxy)-2-pyridinyl)-1H-indol-5-yl)-1,3,4-thiadiazol-2-amine]	5.16	–	–	–	6.32
7.39	–	7.16	Nc1nnc(-c2ccc3[nH]cc(-c4cccc(N5CCCCC5)n4)c3c2)s1 [Example 172, 5-(3-(6-(1-piperidinyl)-2-pyridinyl)-1H-indol-5-yl)-1,3,4-thiadiazol-2-amine]	< 4.50	6.38	–	–	–
8.50	–	7.74	Nc1nnc(-c2ccc3[nH]cc(-c4cncc(NC5CCCCC5)n4)c3c2)s1 [Example 208, 6-(5-(5-amino-1,3,4-thiadiazol-2-yl)-1H-indol-3-yl)-N-cyclohexyl-2-pyrazinamine]	5.58	–	7.25	–	–
7.00	7.55	–	CNc1nnc(-c2ccc3[nH]cc(-c4csc(-n5cnc(C)c5)n4)c3c2)s1 [Example 233, N-methyl-5-(3-(2-(4-methyl-1H-imidazol-1-yl)-1,3-thiazol-4-yl)-1H-indol-5-yl)-1,3,4-thiadiazol-2-amine]	< 4.50	–	5.85	–	–
7.86	–	7.68	C[C@H]1COCCN1c1nnc(-c2ccc3[nH]cc(-c4cncc(C5CC5)n4)c3c2)o1 [Example 248, 3-(6-cyclopropyl-2-pyrazinyl)-5-(5-((3S)-3-methyl-4-morpholinyl)-1,3,4-oxadiazol-2-yl)-1H-indole]	< 4.50	–	6.72	–	–
8.49	–	8.23	c1cc2[nH]cc(-c3cncc(C4CC4)n3)c2cc1-c1nnc(NC2COC2)o1 [Example 251, 5-(3-(6-cyclopropyl-2-pyrazinyl)-1H-indol-5-yl)-N-3-oxetanyl-1,3,4-oxadiazol-2-amine]	5.70	6.97	–	–	–
8.11	8.92	–	c1cc(C2CC2)nc(-c2c[nH]c3ccc(-c4nnc(NC5COC5)o4)cc23)n1 [Example 256, 5-(3-(4-cyclopropyl-2-pyrimidinyl)-1H-indol-5-yl)-N-3-oxetanyl-1,3,4-oxadiazol-2-amine]	6.13	–	7.17	–	–
8.70	–	8.85	c1cc(C2CC2)nc(-c2c[nH]c3ccc(-c4nnc(NC5CC5)o4)cc23)n1 [Example 257, N-cyclopropyl-5-(3-(4-cyclopropyl-2-pyrimidinyl)-1H-indol-5-yl)-1,3,4-oxadiazol-2-amine]	6.03	7.00	–	–	–
7.86	–	7.60	CC(C)Nc1nnc(-c2ccc3[nH]cc(-c4nccc(C(F)(F)F)n4)c3c2)o1 [Example 258, N-(1-methylethyl)-5-(3-(4-(trifluoromethyl)-2-pyrimidinyl)-1H-indol-5-yl)-1,3,4-oxadiazol-2-amine]	5.43	6.64	–	–	–

Structure (SMILES)	pIC50 [2]	pIC50 ([4]; Pim-3 enzyme assay)	pIC50 [5]	pIC50 [1]	pIC50 [3, 6]	pIC50 [3, 7]	pIC50 [4]	pIC50 ([3]; U2OS cells, Pim-1 transfected, read-out: U2OS Pim1_Cell_IC50)
CC(C)Oc1cccc(-c2c[nH]c3ccc(-c4nnc(N[C@@H]5CCCNC5)s4)cc23)n1 [Example 35, (R)-5-(3-(6-Isopropoxypyridin-2-yl)-1H-indol-5-yl)-N-(piperidin-3-yl)-1,3,4-thiadiazol-2-amine 2,2,2-trifluoroacetate]	8.03	–	–	4.96	–	5.94	8.74	–
CNc1nnc(-c2ccc3[nH]cc(-c4cccc(OC5CCC5)n4)c3c2)s1 [Example 232, 5-(3-(6-(cyclobutyloxy)-2-pyridinyl)-1H-indol-5-yl)-N-methyl-1,3,4-thiadiazol-2-amine]	7.24	–	6.98	< 4.50	5.77	–	–	–
